For one test, the target named is T1, human OX1 receptor (Homo sapiens, UniProt O43613).
T1 construct: expressed in transfected cells; host or cells: CHO cells
T1 sequence (O43613 1-425): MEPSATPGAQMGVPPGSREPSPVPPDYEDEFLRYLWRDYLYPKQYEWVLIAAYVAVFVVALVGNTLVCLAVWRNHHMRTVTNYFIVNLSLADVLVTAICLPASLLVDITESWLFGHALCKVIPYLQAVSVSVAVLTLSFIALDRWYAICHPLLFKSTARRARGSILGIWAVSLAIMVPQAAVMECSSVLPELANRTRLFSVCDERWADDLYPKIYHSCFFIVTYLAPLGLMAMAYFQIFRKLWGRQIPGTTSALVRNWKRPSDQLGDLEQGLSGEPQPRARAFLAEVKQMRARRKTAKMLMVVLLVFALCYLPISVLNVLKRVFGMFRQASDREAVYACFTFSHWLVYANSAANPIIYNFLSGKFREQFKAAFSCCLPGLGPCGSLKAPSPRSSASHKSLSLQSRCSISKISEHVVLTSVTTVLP
As to the kind of experiment: Measurement of orexin receptor antagonistic activity (calcium fluorescence, FLIPRtetra). The format is cell-based. To be noted: 10 μM test compound, CHO cells expressing human OX1 receptor, OX-A 1 nM; for inhibition at 10 µM: CHO, read-out: Human Orexin1 receptor inhibition (at 10 μM). In a few lines:
(§1)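 CHO cells expressing human OX1 or OX2 receptor, cultured one day. Compound in HBSS/20 mM HEPES/0.1% BSA added, then orexin-A at 1 nM final (OX1) or 0.3 nM final (OX2); calcium fluorescence by FLIPRtetra every 1 s for 2 min.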

The next test has as its target T2, human OX2 receptor (Homo sapiens, UniProt O43614).
T2 construct: expressed in transfected cells; host or cells: CHO cells
T2 sequence (O43614 1-444): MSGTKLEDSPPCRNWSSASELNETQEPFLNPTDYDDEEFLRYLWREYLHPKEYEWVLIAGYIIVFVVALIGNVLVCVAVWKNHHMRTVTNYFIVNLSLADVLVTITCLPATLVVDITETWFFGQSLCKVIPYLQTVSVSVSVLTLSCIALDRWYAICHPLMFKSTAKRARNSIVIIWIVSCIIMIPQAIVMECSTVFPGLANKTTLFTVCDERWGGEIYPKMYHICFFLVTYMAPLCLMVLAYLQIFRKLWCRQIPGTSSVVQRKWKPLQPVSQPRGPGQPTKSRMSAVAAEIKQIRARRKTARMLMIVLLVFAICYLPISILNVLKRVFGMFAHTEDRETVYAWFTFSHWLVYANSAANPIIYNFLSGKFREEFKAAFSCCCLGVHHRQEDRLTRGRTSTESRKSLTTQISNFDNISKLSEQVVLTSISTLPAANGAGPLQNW
The test is described as above. In kind it is cell-based. To be noted: 10 μM test compound, CHO cells expressing human OX2 receptor, OX-A 0.3 nM; for inhibition at 10 µM: CHO, read-out: Human Orexin2 receptor inhibition (at 10 μM). An outline of the steps:
as §1

With `Cc1cc(N2CCN(C(=O)c3ccccc3-n3nccn3)C(C)C(C)O2)nc(C)n1` (centres unmarked) [Example 193, (2-(2,6-dimethylpyrimidin-4-yl)-6,7-dimethyl-1,2,5-oxadiazepan-5-yl)(2-(2H-1,2,3-triazol-2-yl)phenyl)methanone], at human OX1 receptor, the “Human Orexin1 receptor inhibition (at 10 μM)” value was 89%. Also, on human OX2 receptor, the “Human Orexin2 receptor inhibition (at 10 μM)” value was found to be 103%.
The term inhibition denotes the drop in the measured response relative to a control, in per cent. In the case of `Cc1cc(N2CCN(C(=O)c3cc(Cl)ccc3-n3nccn3)[C@H](C)CO2)nc(C)n1` [Example 194, (5-chloro-2-(2H-1,2,3-triazol-2-yl)phenyl)((6R)-2-(2,6-dimethylpyrimidin-4-yl)-6-methyl-1,2,5-oxadiazepan-5-yl)methanone], the inhibition at 10 µM is 66% on human OX1 receptor and 100% on human OX2 receptor.
In the same order, the values of `Cc1cc(N2CCN(C(=O)c3cc(Cl)ccc3-c3ncccn3)[C@H](C)CO2)nc(C)n1` [Example 195, (5-chloro-2-(pyrimidin-2-yl)phenyl)((6R)-2-(2,6-dimethylpyrimidin-4-yl)-6-methyl-1,2,5-oxadiazepan-5-yl)methanone] are 81% and 102%.
In the same order, the values of `Cc1ccc(-c2ncccn2)c(C(=O)N2CCN(c3cc(C)nc(C)n3)O[C@@H](C)C2)c1` [Example 196, ((7S)-2-(2,6-dimethylpyrimidin-4-yl)-7-methyl-1,2,5-oxadiazepan-5-yl)(5-methyl-2-(pyrimidin-2-yl)phenyl)methanone] are 89% and 100%.
Take `Cc1cc(N2CCN(C(=O)c3cc(Cl)ccc3-c3ncccn3)C[C@H](C)O2)nc(C)n1` [Example 197, (5-chloro-2-(pyrimidin-2-yl)phenyl)((7S)-2-(2,6-dimethylpyrimidin-4-yl)-7-methyl-1,2,5-oxadiazepan-5-yl)methanone]: the results for the inhibition at 10 µM on human OX1 receptor and at human OX2 receptor were 96% and 102%, respectively.
In the same order, the values of `Cc1cc(N2CCN(C(=O)c3cc(F)c(F)cc3-c3ncccn3)C[C@H](C)O2)nc(C)n1` [Example 198, (4,5-difluoro-2-(pyrimidin-2-yl)phenyl)((7S)-2-(2,6-dimethylpyrimidin-4-yl)-7-methyl-1,2,5-oxadiazepan-5-yl)methanone] are 80% and 98%.
On to `Cc1cc(N2CCN(C(=O)c3cc(C(F)(F)F)ccc3-n3nccn3)C[C@H](C)O2)nc(C)n1` [Example 199, ((7S)-2-(2,6-dimethylpyrimidin-4-yl)-7-methyl-1,2,5-oxadiazepan-5-yl)(2-(2H-1,2,3-triazol-2-yl)-5-(trifluoromethyl)phenyl)methanone], for which the inhibition at 10 µM stood at 42% on human OX1 receptor and 100% at human OX2 receptor.
In the same order, the values of `Cc1cc(N2CCN(C(=O)c3ccc(Cl)cc3-n3nccn3)C[C@H](C)O2)nc(C)n1` [Example 200, (4-chloro-2-(2H-1,2,3-triazol-2-yl)phenyl)((7S)-2-(2,6-dimethylpyrimidin-4-yl)-7-methyl-1,2,5-oxadiazepan-5-yl)methanone] are 83% and 100%.
For `CCc1ccc(-n2nccn2)c(C(=O)N2CCN(c3cc(C)nc(C)n3)O[C@@H](C)C2)c1` [Example 201, ((7S)-2-(2,6-dimethylpyrimidin-4-yl)-7-methyl-1,2,5-oxadiazepan-5-yl)(5-ethyl-2-(2H-1,2,3-triazol-2-yl)phenyl)methanone] the same measures were 60% and 101%.
As for `Cc1cc(N2CCN(C(=O)c3cc(C(F)(F)F)ccc3-n3nccn3)CCO2)nc(C)n1` [Example 202, (2-(2,6-dimethylpyrimidin-4-yl)-1,2,5-oxadiazepan-5-yl)(2-(2H-1,2,3-triazol-2-yl)-5-(trifluoromethyl)phenyl)methanone], the figures for the inhibition at 10 µM on human OX1 receptor and at human OX2 receptor were 17% and 102%, respectively.
In the same order, the values of `CCc1ccc(-n2nccn2)c(C(=O)N2CCON(c3cc(C)nc(C)n3)CC2)c1` [Example 203, (2-(2,6-dimethylpyrimidin-4-yl)-1,2,5-oxadiazepan-5-yl)(5-ethyl-2-(2H-1,2,3-triazol-2-yl)phenyl)methanone] are 25% and 101%.
For `Cc1cc(N2CCN(C(=O)c3ccc(Cl)cc3-n3nccn3)CCO2)nc(C)n1` [Example 204, (4-chloro-2-(2H-1,2,3-triazol-2-yl)phenyl)(2-(2,6-dimethylpyrimidin-4-yl)-1,2,5-oxadiazepan-5-yl)methanone] the same measures were 70% and 101%.
Take `Cc1cc(N2CCN(C(=O)c3ccc(Br)cc3-n3nccn3)C[C@H](C)O2)nc(C)n1` [Example 205, (4-bromo-2-(2H-1,2,3-triazol-2-yl)phenyl)((7S)-2-(2,6-dimethylpyrimidin-4-yl)-7-methyl-1,2,5-oxadiazepan-5-yl)methanone]: the inhibition at 10 µM was 82% at human OX1 receptor and 100% at human OX2 receptor.
As for `Cc1nccc(N2CCN(C(=O)c3ccccc3-c3ncccn3)C[C@H](C)O2)n1` [Example 206, ((7S)-7-methyl-2-(2-methylpyrimidin-4-yl)-1,2,5-oxadiazepan-5-yl)(2-(pyrimidin-2-yl)phenyl)methanone], the inhibition at 10 µM is 28% at human OX1 receptor and 100% on human OX2 receptor.
In the same order, the values of `COC(=O)c1cc(N2CCN(C(=O)c3cc(Cl)ccc3-n3nccn3)C[C@H](C)O2)nc(C)n1` [Example 207, methyl 6-((7S)-5-(5-chloro-2-(2H-1,2,3-triazol-2-yl)benzoyl)-7-methyl-1,2,5-oxadiazepan-2-yl)-2-methylpyrimidine-4-carboxylate] are 25% and 81%.
Take `CCOC(=O)c1cc(N2CCN(C(=O)c3cc(Cl)ccc3-n3nccn3)C[C@H](C)O2)nc(C)n1` [Example 208, ethyl 6-((7S)-5-(5-chloro-2-(2H-1,2,3-triazol-2-yl)benzoyl)-7-methyl-1,2,5-oxadiazepan-2-yl)-2-methylpyrimidine-4-carboxylate]: the inhibition at 10 µM amounted to 8% on human OX1 receptor and 14% on human OX2 receptor.
For `Cc1cc(N2CCN(C(=O)c3ccccc3C#N)C[C@H](C)O2)nc(C)n1` [Example 209, 2-(((7S)-2-(2,6-dimethylpyrimidin-4-yl)-7-methyl-1,2,5-oxadiazepan-5-yl)carbonyl)benzonitrile] the same measures were -12% and 18%.
In the same order, the values of `Cc1cc(N2CCN(C(=O)c3c(F)cccc3-n3nccn3)C[C@H](C)O2)nc(C)n1` [Example 210, ((7S)-2-(2,6-dimethylpyrimidin-4-yl)-7-methyl-1,2,5-oxadiazepan-5-yl)(2-fluoro-6-(2H-1,2,3-triazol-2-yl)phenyl)methanone] are 51% and 97%.
As for `Cc1cc(N2CCN(C(=O)c3ccc(Cl)cc3-n3ccnn3)C[C@H](C)O2)nc(C)n1` [Example 211, (4-chloro-2-(1H-1,2,3-triazol-1-yl)phenyl)((7S)-2-(2,6-dimethylpyrimidin-4-yl)-7-methyl-1,2,5-oxadiazepan-5-yl)methanone], the figures for the inhibition at 10 µM at human OX1 receptor and on human OX2 receptor were 21% and 80%, respectively.
In the same order, the values of `Cc1cc(N2CCN(C(=O)c3ccccc3-c3ncccn3)[C@H](C)CO2)nc(C)n1` [Example 213, ((6R)-2-(2,6-dimethylpyrimidin-4-yl)-6-methyl-1,2,5-oxadiazepan-5-yl)(2-(pyrimidin-2-yl)phenyl)methanone] are 47% and 102%.
In the same order, the values of `Cc1nc(N2CCN(C(=O)c3ccccc3-c3ncccn3)[C@H](C)CO2)cc(C(F)(F)F)n1` [Example 214, ((6R)-6-methyl-2-(2-methyl-6-(trifluoromethyl)pyrimidin-4-yl)-1,2,5-oxadiazepan-5-yl)(2-(pyrimidin-2-yl)phenyl)methanone] are 55% and 103%.
In the case of `Cc1ncc(Cl)c(N2CCN(C(=O)c3cc(Cl)ccc3-n3nccn3)[C@H](C)CO2)n1` [Example 215, ((6R)-2-(5-chloro-2-methylpyrimidin-4-yl)-6-methyl-1,2,5-oxadiazepan-5-yl)(5-chloro-2-(2H-1,2,3-triazol-2-yl)phenyl)methanone], the figures for the inhibition at 10 µM at human OX1 receptor and at human OX2 receptor were 40% and 102%, respectively.

These data come from patent US10131653B2, “Heterocyclic compound” (TAKEDA PHARMACEUTICAL COMPANY LIMITED, priority 2015, dated 2018).
